The target in the experiment is T1, hGOAT (Homo sapiens, UniProt Q96T53).
T1 construct: expressed in transfected cells; host or cells: HEK293 (Hek293 hGOAT/PPGhrl Clone #1B8)
T1 sequence (Q96T53 1-435): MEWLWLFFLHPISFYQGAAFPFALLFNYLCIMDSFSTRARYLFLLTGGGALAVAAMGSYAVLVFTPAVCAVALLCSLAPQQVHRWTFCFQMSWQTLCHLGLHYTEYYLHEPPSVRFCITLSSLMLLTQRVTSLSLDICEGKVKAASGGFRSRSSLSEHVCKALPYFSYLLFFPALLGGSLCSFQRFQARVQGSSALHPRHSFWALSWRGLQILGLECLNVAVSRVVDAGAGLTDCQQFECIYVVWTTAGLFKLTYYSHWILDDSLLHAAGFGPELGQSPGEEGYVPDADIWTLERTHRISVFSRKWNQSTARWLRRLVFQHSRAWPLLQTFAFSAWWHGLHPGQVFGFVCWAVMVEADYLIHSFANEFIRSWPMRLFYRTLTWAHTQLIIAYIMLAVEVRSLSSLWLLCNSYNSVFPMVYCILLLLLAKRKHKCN
Put plainly: Determination of hGOAT activity in HEK293 cells after incubation with test compound (acyl-ghrelin ELISA). The conditions noted are these: HEK293 cells stably transfected with preproghrelin and human GOAT; octanoate-BSA 100 μM; 5 hours incubation; acyl-ghrelin in medium by ELISA; 8 compound concentrations. It is filed as cell-based. As for the experimental part: Determination of hGOAT Activity in HEK293 Cells after Incubation with Test Compound
HEK293 cells stably transfected with two expression vectors, one coding for preproghrelin cDNA and a second for the expression of human GOATcDNA are used as a cellular model. After feeding the cells with octanoic acid for 5 hours, acyl-ghrelin is measured in cell culture medium by an ELISA procedure.
Cellline: Hek293 hGOAT/PPGhrl Clone #1B8Sodium octanoate, Sigma, Cat.-No. C5038
BD Poly-D-Lysin 384-well Plates, black-clear polystyrene BD Bioscience Cat.-No. […] ELISA human acylated Ghrelin Kit purchased from Bertin Pharman (detailed composition of buffers e.g. wash-puffer, ELISA buffer not known)
Cells are plated with a density of 5000 cells/well in 384-well poly-D-lysin plates and incubated for 1 day at 37° C., 5% CO2 in DMEM medium, 10% FCS, 1×NEAA, Puromycin (0.5 μg/ml) and G418 (1 mg/ml). Then the medium is changed to a identical medium without FCS and containing Octanoate-BSA (final concentration 100 μM each) and compound in DMSO (final DMSO concentration 0,3%). After incubation for 5 hours acylghrelin in the medium is measured by ELISA.
The medium sample is diluted 1:25 in Elisa buffer, a 25 μl aliquot is transferred to a 384-well ELISA plate previously washed 4 times with 100 μL wash buffer, and 25 μl tracer-solution is added. After incubation overnight (˜20 h) at 4° C. temperature the plate is washed 4 times with 100 μl wash-buffer per well. Finally 50 μl Ellman's reagent is added to each well and the plate is incubated in the dark for 20 minutes. The absorbance is measured at 405 nm in an Envision multilabel reader and the amount of acylated ghrelin is calculated according to a acylated ghrelin standard curve provided in the same plate.
The analysis of the data is performed by calculation of the percentage of acyl-ghrelin produced in the presence of test compound compared to the amount of acyl-ghrelin produced in the vehicle control samples. An inhibitor of the GOAT enzyme will give values between 100% CTL (no inhibition) and 0% CTL (complete inhibition).
IC50 values are calculated with Assay Explorer or other suited software based on curve fitting of results of 8 different compound concentrations.
`Cc1nc2nonc2c(N)c1Cc1ccc(C2(C#N)CC2)nc1` [Compound 4.8, 1-[5-({7-Amino-5-methyl-[1,2,5]oxadiazolo[3,4-b]pyridin-6-yl}methyl)pyridin-2-yl]cyclopropane-1-carbonitrile]: inhibition was half-maximal at 1.41 nM (IC50).

Regarding `Cc1nc2nonc2c(N)c1Cc1cccn2c(C)nnc12` [Compound 4.9, 5-Methyl-6-({3-methyl-[1,2,4]triazolo[4,3-a]pyridin-8-yl}methyl)-[1,2,5]oxadiazolo[3,4-b]pyridin-7-amine], the IC50 was determined as 4.01 nM. With `Cc1nc2nonc2c(N)c1Cc1cccn2c(C(F)(F)F)nnc12` [Compound 4.10] the figure was 5.36 nM; with `Cc1nc2nonc2c(N)c1Cc1cccn2cnnc12` [Compound 4.11, 5-Methyl-6-({[1,2,4]triazolo[4,3-a]pyridin-8-yl}methyl)-[1,2,5]oxadiazolo[3,4-b]pyridin-7-amine], 3.42 nM.

For `Cc1nc2nonc2c(N)c1Cc1ccc(C(F)(F)F)n2cnnc12` [Compound 4.12, 5-Methyl-6-{[5-(trifluoromethyl)-[1,2,4]triazolo[4,3-a]pyridin-8-yl]methyl}-[1,2,5]oxadiazolo[3,4-b]pyridin-7-amine], the IC50 came out at 0.571 nM. With `Cc1nc2nonc2c(N)c1Cc1cccn2c(C3CC3)nnc12` [Compound 4.13, 6-({3-Cyclopropyl-[1,2,4]triazolo[4,3-a]pyridin-8-yl}methyl)-5-methyl-[1,2,5]oxadiazolo[3,4-b]pyridin-7-amine] the figure was 0.89 nM.

Compound `Cc1nc2nonc2c(N)c1Cc1ccc(Cl)n2cnnc12` [Compound 4.14, 6-({5-Chloro-[1,2,4]triazolo[4,3-a]pyridin-8-yl}methyl)-5-methyl-[1,2,5]oxadiazolo[3,4-b]pyridin-7-amine] gave an IC50 of 0.665 nM. With `Cc1nc2nonc2c(N)c1Cc1ccc(OC(F)F)n2cnnc12` [Compound 4.15, 6-{[5-(Difluoromethoxy)-[1,2,4]triazolo[4,3-a]pyridin-8-yl]methyl}-5-methyl-[1,2,5]oxadiazolo[3,4-b]pyridin-7-amine] the figure was 0.33 nM; with `Cc1nc2nonc2c(N)c1Cc1ccc(OC(F)F)nc1` [Compound 4.16, 6-{[6-(Difluoromethoxy)pyridin-3-yl]methyl}-5-methyl-[1,2,5]oxadiazolo[3,4-b]pyridin-7-amine], 0.642 nM. With `Cc1nc2nonc2c(N)c1Cc1ccc(OC2CCC2)nc1` [Compound 4.17, 6-[(6-Cyclobutoxypyridin-3-yl)methyl]-5-methyl-[1,2,5]oxadiazolo[3,4-b]pyridin-7-amine] the figure was 0.371 nM; with `Cc1nc2nonc2c(N)c1Cc1ccc(Cl)nc1` [Compound 4.18, 6-[(6-Chloropyridin-3-yl)methyl]-5-methyl-[1,2,5]oxadiazolo[3,4-b]pyridin-7-amine], 1.65 nM; with `CSc1ccc(Cc2c(C)nc3nonc3c2N)cc1` [Compound 4.19, 5-Methyl-6-{[4-(methylsulfanyl)phenyl]methyl}-[1,2,5]oxadiazolo[3,4-b]pyridin-7-amine], 0.174 nM. With `Cc1nc2nonc2c(N)c1Cc1ccc2nccn2c1` [Compound 4.20, 6-Imidazo[1,2-a]pyridin-6-ylmethyl-5-methyl-[1,2,5]oxadiazolo[3,4-b]pyridin-7-ylamine] the figure was 5.51 nM. Consider `Cc1nc2nonc2c(N)c1Cc1ccn2ncnc2c1` [Compound 4.21, 5-Methyl-6-({[1,2,4]triazolo[1,5-a]pyridin-7-yl}methyl)-[1,2,5]oxadiazolo[3,4-b]pyridin-7-amine], for which the IC50 amounted to 3.41 nM. With `Cc1ncc(-c2ccc(Cc3c(C)nc4nonc4c3N)cn2)o1` [Compound 4.22, 5-Methyl-6-{[6-(2-methyl-1,3-oxazol-5-yl)pyridin-3-yl]methyl}-[1,2,5]oxadiazolo[3,4-b]pyridin-7-amine] the figure was 4.81 nM. `COC(=O)c1cn2cc(Cc3c(C)nc4nonc4c3N)ccc2n1` [Compound 4.23, Methyl 6-({7-amino-5-methyl-[1,2,5]oxadiazolo[3,4-b]pyridin-6-yl}methyl)imidazo[1,2-a]pyridine-2-carboxylate] had an IC50 of 7.76 nM.

`Cc1nc2nonc2c(N)c1Cc1ccc(C(C)(C)C#N)nc1` [Compound 4.24, 2-[5-({7-Amino-5-methyl-[1,2,5]oxadiazolo[3,4-b]pyridin-6-yl}methyl)pyridin-2-yl]-2-methylpropanenitrile]: the IC50 turned out to be 0.838 nM. With `CCC(C#N)(CC)c1ccc(Cc2c(C)nc3nonc3c2N)cn1` [Compound 4.25, 2-[5-({7-Amino-5-methyl-[1,2,5]oxadiazolo[3,4-b]pyridin-6-yl}methyl)pyridin-2-yl]-2-ethylbutanenitrile] the figure was 0.081 nM. With `Cc1nc2nonc2c(N)c1Cc1ccc(C2(C#N)CCCC2)nc1` [Compound 4.26, 1-[5-({7-Amino-5-methyl-[1,2,5]oxadiazolo[3,4-b]pyridin-6-yl}methyl)pyridin-2-yl]cyclopentane-1-carbonitrile] the figure was 0.098 nM; with `Cc1nc2nonc2c(N)c1Cc1ccc(C2(C#N)CCOCC2)nc1` [Compound 4.27, 4-[5-({7-Amino-5-methyl-[1,2,5]oxadiazolo[3,4-b]pyridin-6-yl}methyl)pyridin-2-yl]oxane-4-carbonitrile], 1.65 nM; with `Cc1nc2nonc2c(N)c1Cc1ccc(C2(C#N)CC(F)(F)C2)nc1` [Compound 4.28, 1-[5-({7-Amino-5-methyl-[1,2,5]oxadiazolo[3,4-b]Pyridin-6-yl}methyl)pyridin-2-yl]-3,3-difluorocyclobutane-1-carbonitrile], 1.5 nM.

For `Cc1nc2nonc2c(N)c1Cc1ccc(Br)nc1` [Compound 4.29, 6-[(6-Bromopyridin-3-yl)methyl]-5-methyl-[1,2,5]oxadiazolo[3,4-b]pyridin-7-amine], the IC50 is 1.27 nM. Take `Cc1nc2nonc2c(N)c1Cc1ccc(C(F)F)nc1` [Compound 4.30, 6-{[6-(Difluoromethyl)pyridin-3-yl]methyl}-5-methyl-[1,2,5]oxadiazolo[3,4-b]pyridin-7-amine]: the IC50 was 1.39 nM. `Cc1nc2nonc2c(N)c1Cc1ccc(C#N)c(F)c1` [Compound 4.31, 4-({7-Amino-5-methyl-[1,2,5]oxadiazolo[3,4-b]pyridin-6-yl}methyl)-2-fluorobenzonitrile] returned an IC50 of 0.487 nM. The compound `Cc1nc2nonc2c(N)c1Cc1ccc(SC(F)(F)F)cc1` [Compound 4.32, 5-Methyl-6-({4-[(trifluoromethyl)sulfanyl]phenyl}methyl)-[1,2,5]oxadiazolo[3,4-b]pyridin-7-amine] had a half-inhibitory concentration (IC50) of 0.064 nM. `Cc1nc2nonc2c(N)c1Cc1ccc(OC(F)F)cc1` [Compound 4.33, 6-{[4-(Difluoromethoxy)phenyl]methyl}-5-methyl-[1,2,5]oxadiazolo[3,4-b]pyridin-7-amine]: the IC50 was determined as 0.114 nM. With `Cc1nc2nonc2c(N)c1Cc1ccc2nn(C)cc2c1` [Compound 4.34, 5-Methyl-6-[(2-methyl-2H-indazol-5-yl)methyl]-[1,2,5]oxadiazolo[3,4-b]pyridin-7-amine] the figure was 1.4 nM. With `Cc1nc2nonc2c(N)c1Cc1ccc(C#N)c(OC(F)F)c1` [Compound 4.35, 4-({7-Amino-5-methyl-[1,2,5]oxadiazolo[3,4-b]pyridin-6-yl}methyl)-2-(difluoromethoxy)benzonitrile], the IC50 turned out to be 0.111 nM.

The compound `Cc1nc2nonc2c(N)c1Cc1cccc(C#N)c1` [Compound 4.36, 3-(7-Amino-5-methyl-[1,2,5]oxadiazolo[3,4-b]pyridin-6-ylmethyl)-benzonitrile] gave an IC50 of 5.8 nM. With `Cc1nc2nonc2c(N)c1Cc1cc(I)ncc1C(F)(F)F` [Compound 4.37, 6-{[2-Iodo-5-(trifluoromethyl)pyridin-4-yl]methyl}-5-methyl-[1,2,5]oxadiazolo[3,4-b]pyridin-7-amine] the figure was 0.534 nM.

These data come from US11254688B2 (Boehringer Ingelheim International GmbH, priority 2018, dated 2022).
